Results on one compound are retold here after publication PMC12487869, “Toward Imaging of the GABA Transporter Type 1 In Vivo: Quantitative Evaluation of 4 Novel PET Radiotracers in Nonhuman Primates” (Journal of Nuclear Medicine, 2025).

The data set is described as follows: Metabolite analysis of arterial plasma (unmetabolized parent fraction), column-switching HPLC. The conditions noted are these: mean ± SD. Format: in vivo, rhesus monkeys (Macaca mulatta). On the procedure:
Arterial blood samples were collected for each scan to measure the input function. Metabolite analysis was performed using an automatic column-switching high-performance liquid chromatography system ([22]) for 7 arterial blood samples collected at 5, 15, 30, 60, 90, 120, and 180 min. The radiometabolite-corrected arterial plasma input function was obtained by calculating the product of the fitted total plasma (fitted with a sum of exponentials) and unmetabolized parent fraction curves (using an integrated γ-function ([23])).

For the compound `Cc1ccccc1C(=CCCN1CCCC(C(=O)O)C1)c1ccccc1[18F]` (centres unmarked) [^18F-GATT-44], the Parent compound reads like this: (30 min) 88 ± 4%; (90 min) 83 ± 6%.
